From PubChem BioAssay (NCI)
Several values for one entry are separate records, joined by “and”; a condition that tells them apart may be missing. Equal entries are not always repeated.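 Following 48 hours of exposure in 96-well plates, responses at five concentrations were used to interpolate endpoints linearly. Here, GI50 denotes the concentration required for 50% inhibition of growth. Definition used: TGI = concentration required for complete inhibition of growth.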 Where a SMILES comes first, the peptide text is derived from it.

Key:
Test in all cases: growth of human tumour cells (NCI), 48 h
M19-MEL melanoma = tested on: M19-MEL melanoma
KM20L2 colon = tested on: KM20L2 colon
NCI-H23 lung = tested on: NCI-H23 lung
HL-60(TB) leukemia = tested on: HL-60(TB) leukemia
DLD-1 colon = tested on: DLD-1 colon
OVCAR-3 ovarian = tested on: OVCAR-3 ovarian
NCI/ADR-RES ovarian = tested on: NCI/ADR-RES ovarian
MCF7 breast = tested on: MCF7 breast
BT-549 breast = tested on: BT-549 breast
DU-145 prostate = tested on: DU-145 prostate

N=C1N(c2ccccc2)C(=O)C23CCCC2C13N1CCOCC1 (centres undefined)
TGI (M19-MEL melanoma): > 100 µM | TGI (KM20L2 colon): > 100 µM | TGI (NCI-H23 lung): > 100 µM | TGI (HL-60(TB) leukemia): > 100 µM | TGI (DLD-1 colon): > 100 µM | TGI (OVCAR-3 ovarian): > 100 µM

COc1cc(-c2cc(=O)c3ccccc3o2)ccc1N
TGI (M19-MEL melanoma): > 100 µM | TGI (KM20L2 colon): > 100 µM | TGI (NCI-H23 lung): > 100 µM | TGI (HL-60(TB) leukemia): 71.5 µM | TGI (OVCAR-3 ovarian): > 100 µM

NC(=O)N/N=C(\C(=O)C(=O)Nc1ccc(Cl)c(C(F)(F)F)c1)c1nc2ccc(C(=O)c3ccccc3)cc2[nH]c1=O
TGI (M19-MEL melanoma): > 100 µM | TGI (KM20L2 colon): > 100 µM | TGI (NCI-H23 lung): > 100 µM

CC(=O)NC(CCCCNC(=O)N(CCCl)N=O)C(=O)NCc1ccccc1 (centres undefined)
TGI (M19-MEL melanoma): > 100 µM | TGI (KM20L2 colon): > 100 µM | TGI (NCI-H23 lung): > 100 µM | TGI (HL-60(TB) leukemia): > 100 µM | TGI (DLD-1 colon): > 100 µM | TGI (OVCAR-3 ovarian): > 100 µM

O=C(O)C1NCCc2c1[nH]c1ccccc21 (centres undefined)
TGI (M19-MEL melanoma): > 100 µM | TGI (KM20L2 colon): > 100 µM | GI50 (NCI-H23 lung): > 100 µM | TGI (NCI-H23 lung): > 100 µM | TGI (NCI/ADR-RES ovarian): > 10 µM | GI50 (HL-60(TB) leukemia): > 100 µM | TGI (HL-60(TB) leukemia): > 100 µM | TGI (MCF7 breast): > 10 µM | TGI (DLD-1 colon): > 100 µM | TGI (BT-549 breast): > 10 µM | GI50 (OVCAR-3 ovarian): > 100 µM | TGI (OVCAR-3 ovarian): > 100 µM | TGI (DU-145 prostate): > 10 µM

O=C(/C=C\c1cccc2ccccc12)c1cccs1
TGI (M19-MEL melanoma): 22.4 µM | TGI (KM20L2 colon): 22.5 µM | TGI (NCI-H23 lung): 34.8 µM | TGI (HL-60(TB) leukemia): 15.6 µM | TGI (DLD-1 colon): 16.9 µM | TGI (OVCAR-3 ovarian): 23.7 µM

ClC1CCC2OOC1O2 (centres undefined)
TGI (M19-MEL melanoma): > 100 µM | TGI (KM20L2 colon): > 100 µM | TGI (NCI-H23 lung): > 100 µM | TGI (HL-60(TB) leukemia): > 100 µM | TGI (OVCAR-3 ovarian): > 100 µM

COC(=O)C(=O)C(C(=O)C(=O)Nc1ccc(Cl)cc1C)c1nc2ccc(C(=O)c3ccccc3)cc2[nH]c1=O (centres undefined)
TGI (M19-MEL melanoma): > 100 µM | TGI (KM20L2 colon): > 100 µM | TGI (NCI-H23 lung): > 100 µM | TGI (HL-60(TB) leukemia): > 100 µM | TGI (DLD-1 colon): > 100 µM | TGI (OVCAR-3 ovarian): > 100 µM

COC(=O)C(C(=O)C(=O)Nc1ccccc1C(C)=O)c1nc2ccc(Cl)cc2[nH]c1=O (centres undefined)
TGI (M19-MEL melanoma): > 100 µM | TGI (KM20L2 colon): > 100 µM | TGI (NCI-H23 lung): > 100 µM | TGI (HL-60(TB) leukemia): > 100 µM | TGI (DLD-1 colon): > 100 µM | TGI (OVCAR-3 ovarian): > 100 µM

CC(=O)O[C@H]1C(=O)O[C@@H]2C[C@H]3C(C)=CC(=O)[C@@H](O)[C@]3(C)[C@H]3[C@@]4(O)OC[C@]32[C@@H]1[C@@H](C)[C@H]4O
TGI (M19-MEL melanoma): 0.072 µM | TGI (KM20L2 colon): 2.43 µM | GI50 (NCI-H23 lung): < 0.0141 µM | TGI (NCI-H23 lung): 0.0904 µM and 0.453 µM | GI50 (NCI/ADR-RES ovarian): 0.844 µM | TGI (NCI/ADR-RES ovarian): 15.2 µM and 51.4 µM | TGI (HL-60(TB) leukemia): 0.4 µM | GI50 (MCF7 breast): < 0.01 µM | TGI (MCF7 breast): 0.0593 µM and 0.0543 µM | TGI (DLD-1 colon): 0.403 µM | TGI (BT-549 breast): 0.513 µM | GI50 (OVCAR-3 ovarian): 0.0134 µM | TGI (OVCAR-3 ovarian): 0.172 µM and 0.12 µM | TGI (DU-145 prostate): 0.176 µM

O=C(O)c1ccc(O)c(N=Nc2cc(S(=O)(=O)O)c3ccccc3c2O)c1
TGI (M19-MEL melanoma): > 100 µM | TGI (KM20L2 colon): > 100 µM | TGI (NCI-H23 lung): > 100 µM | TGI (HL-60(TB) leukemia): > 100 µM | TGI (DLD-1 colon): > 100 µM | TGI (OVCAR-3 ovarian): > 100 µM

COC(=O)C(C(=O)C(=O)NC1=C(Cl)C(=O)c2ccccc2C1=O)c1csc(-n2nc(-c3ccccc3)cc2-c2ccccc2)n1 (centres undefined)
TGI (M19-MEL melanoma): > 100 µM | TGI (KM20L2 colon): > 100 µM | TGI (NCI-H23 lung): > 100 µM | TGI (HL-60(TB) leukemia): > 100 µM | TGI (DLD-1 colon): > 100 µM | TGI (OVCAR-3 ovarian): > 100 µM

Cc1ccc([N+](=O)[O-])cc1NC(=O)C(=O)Cc1occc(=O)c1O
TGI (M19-MEL melanoma): > 100 µM | TGI (KM20L2 colon): > 100 µM | TGI (HL-60(TB) leukemia): > 100 µM | TGI (DLD-1 colon): > 100 µM | TGI (OVCAR-3 ovarian): > 100 µM

CNNCc1ccc(C(=O)NC(C)C)cc1
TGI (M19-MEL melanoma): > 500 µM | GI50 (KM20L2 colon): > 500 µM | TGI (KM20L2 colon): > 500 µM | TGI (NCI-H23 lung): > 500 µM | TGI (NCI/ADR-RES ovarian): > 500 µM | TGI (HL-60(TB) leukemia): > 500 µM | TGI (MCF7 breast): > 500 µM | TGI (DLD-1 colon): > 500 µM | TGI (BT-549 breast): > 500 µM | TGI (OVCAR-3 ovarian): > 472 µM | TGI (DU-145 prostate): > 500 µM

C[C@@H](CO)OCOCc1ccccc1
TGI (M19-MEL melanoma): > 100 µM | TGI (NCI-H23 lung): > 100 µM | TGI (HL-60(TB) leukemia): > 100 µM | TGI (DLD-1 colon): > 100 µM | TGI (OVCAR-3 ovarian): > 100 µM

COC(=O)/C(C#N)=C1\CCC(O)N1C (centres undefined)
TGI (KM20L2 colon): > 100 µM | TGI (NCI-H23 lung): > 100 µM | TGI (HL-60(TB) leukemia): > 100 µM | TGI (DLD-1 colon): > 100 µM | TGI (OVCAR-3 ovarian): > 100 µM

CC1(C)OC(C(N)=O)=C(C(N)=O)O1
TGI (M19-MEL melanoma): > 100 µM | TGI (KM20L2 colon): > 100 µM | TGI (NCI-H23 lung): > 100 µM | TGI (HL-60(TB) leukemia): > 100 µM | TGI (DLD-1 colon): > 100 µM | TGI (OVCAR-3 ovarian): > 100 µM

Nc1ncnc(NC2C=C(CO)C(O)C2O)c1[N+](=O)[O-] (centres undefined)
TGI (M19-MEL melanoma): > 100 µM | TGI (KM20L2 colon): > 100 µM | TGI (NCI-H23 lung): > 100 µM | TGI (HL-60(TB) leukemia): > 100 µM | TGI (DLD-1 colon): > 100 µM | TGI (OVCAR-3 ovarian): > 100 µM

COC(=O)C1=CN=C(C(=O)OC)NN1
TGI (M19-MEL melanoma): > 100 µM | TGI (KM20L2 colon): > 100 µM | TGI (NCI-H23 lung): > 100 µM | TGI (HL-60(TB) leukemia): > 100 µM | TGI (DLD-1 colon): > 100 µM | TGI (OVCAR-3 ovarian): > 100 µM

Cc1c(C(=O)CC(=O)C(=O)Nc2ccc(Cl)c(Cl)c2)[n+](=O)c2ccccc2n1[O-]
TGI (M19-MEL melanoma): 33.3 µM | TGI (KM20L2 colon): > 100 µM | TGI (NCI-H23 lung): 96 µM | TGI (HL-60(TB) leukemia): 47.4 µM | TGI (OVCAR-3 ovarian): 7.91 µM

COc1ccc(C(c2ccc(C(C)C)cc(=O)c2O)c2ccc3cccnc3c2O)cc1 (centres undefined)
TGI (M19-MEL melanoma): 2.54 µM | TGI (NCI-H23 lung): 1.58 µM | TGI (HL-60(TB) leukemia): 6.23 µM | TGI (DLD-1 colon): 15.3 µM | TGI (OVCAR-3 ovarian): 4.95 µM

CC(C)CC(NC(=O)C(CC(C)C)NC(=O)C(Cc1cnc[nH]1)NC(=O)C(C)NC(=O)C(NC(=O)C(C)NC(=O)C(Cc1c[nH]c2ccccc12)NC(=O)C(CCC(=O)O)NC(=O)C(N)Cc1ccccc1)C(C)C)C(N)=O (centres undefined) (H-FEWAVAHLL-NH2; configuration not given here)
TGI (M19-MEL melanoma): > 100 µM | TGI (KM20L2 colon): > 100 µM | GI50 (NCI-H23 lung): > 100 µM | TGI (NCI-H23 lung): > 100 µM | TGI (NCI/ADR-RES ovarian): > 12.5 µM | GI50 (HL-60(TB) leukemia): > 100 µM | TGI (HL-60(TB) leukemia): > 100 µM | TGI (MCF7 breast): > 12.5 µM | TGI (DLD-1 colon): > 100 µM | GI50 (OVCAR-3 ovarian): > 100 µM | TGI (OVCAR-3 ovarian): > 100 µM | TGI (DU-145 prostate): > 12.5 µM

CC(C)NCC(O)COC(=O)c1cccs1 (centres undefined)
TGI (M19-MEL melanoma): > 100 µM | TGI (KM20L2 colon): > 100 µM | TGI (NCI-H23 lung): > 100 µM | TGI (HL-60(TB) leukemia): > 100 µM | TGI (DLD-1 colon): > 100 µM | TGI (OVCAR-3 ovarian): > 100 µM

Cc1ccccc1NC(=O)C(=O)C(c1cnc2ccc([N+](=O)[O-])cc2n1)[N+](=O)[O-] (centres undefined)
TGI (M19-MEL melanoma): > 100 µM | TGI (KM20L2 colon): > 100 µM | TGI (NCI-H23 lung): > 100 µM | TGI (HL-60(TB) leukemia): > 100 µM | TGI (DLD-1 colon): > 100 µM

O=C1C(=O)N(C(=O)c2ccc(Cl)c(Cl)c2)c2ccc(Cl)cc21
TGI (M19-MEL melanoma): 39.9 µM | TGI (NCI-H23 lung): > 100 µM | TGI (HL-60(TB) leukemia): 61.6 µM | TGI (DLD-1 colon): > 100 µM | TGI (OVCAR-3 ovarian): > 100 µM
